From patent US8034923B1, “Reagents for reversibly terminating primer extension” (priority 2009, dated 2011)
Blank lines part the entries; values can stand above or below the compound they belong to.

Columns and labels:
[1] = Cleavage of 3′-O-aminothymidine 1b with aqueous HONO and no cosolvent; type: physicochemical
Protocol: (§1) To an aqueous solution of 3′-O-aminothymidine (1b, 20 mM, 2 μL) was added aqueous nitrous acid (350-700 mM NaNO2/1 M NaOAc, 50 μL, pH 5.5-5.75). The resulting pH was measured with a microelectrode (accuracy ca. ±0.02). After 1 or 2 min at room temperature, the reaction was quenched by the addition of K-phosphate buffer (1 M, 200 μL, pH 7), and analyzed by analytical reverse-phase HPLC (Waters NovaPak C-18 4 μm, 3.9×150 mm, with guard column Waters NovaPak C-18 4 μm, 3.9×15 mm, eluent A=25 mM TEAA pH 7, eluent B=acetonitrile, gradient from 3% B to 13% B in 20 min, flow rate=0.5 mL/min, Rt=product: 8 min; starting material: 11 min.). The amount of cleavage was determined by integrating (267 nm) the peaks of the remaining 1b and the product (thymidine). The rates are as follows: As control, the natural nucleosides were treated as follows: An aqueous solution of 2′-deoxyguanosine or 2′-deoxyadenosine or 2′-deoxycytidine (20 mM, 30 μL) was treated with aqueous nitrous acid (700 mM NaNO2, 1 M NaOAc, pH 5.5, 500 μL) at room temperature for 72 h (i.e. 4320 min). An aliquot (50 μL) was removed, neutralized by the addition of K-phosphate buffer (1 M, 200 μL, pH 7), and analyzed by analytical reverse-phase HPLC (Waters NovaPak C-18 4 μm, 3.9×150 mm, with guard column Waters NovaPak C-18 4 μm, 3.9×15 mm. eluent A=25 mM TEAA pH 7, eluent B=acetonitrile, gradient from 0% B to 3% B in 10 min, then to 30% B in 20 min, flow rate=0.5 mL/min, Rt=dG: 14 min, dA: 18 min, dC: 8 min). The amount of decomposition was determined by integrating (260 nm) the peaks of the remaining starting material (nucleoside) and the product(s).

[2] = molecular target: T1, Taq polymerase from New England Biolabs (Thermus aquaticus, UniProt P19821); assay: Standing start primer-extension assay; type: biochemical; settings: 100 μM triphosphate, 72° C., 2 min
T1 construct: purchased New England Biolabs
T1 sequence (P19821 whole entry): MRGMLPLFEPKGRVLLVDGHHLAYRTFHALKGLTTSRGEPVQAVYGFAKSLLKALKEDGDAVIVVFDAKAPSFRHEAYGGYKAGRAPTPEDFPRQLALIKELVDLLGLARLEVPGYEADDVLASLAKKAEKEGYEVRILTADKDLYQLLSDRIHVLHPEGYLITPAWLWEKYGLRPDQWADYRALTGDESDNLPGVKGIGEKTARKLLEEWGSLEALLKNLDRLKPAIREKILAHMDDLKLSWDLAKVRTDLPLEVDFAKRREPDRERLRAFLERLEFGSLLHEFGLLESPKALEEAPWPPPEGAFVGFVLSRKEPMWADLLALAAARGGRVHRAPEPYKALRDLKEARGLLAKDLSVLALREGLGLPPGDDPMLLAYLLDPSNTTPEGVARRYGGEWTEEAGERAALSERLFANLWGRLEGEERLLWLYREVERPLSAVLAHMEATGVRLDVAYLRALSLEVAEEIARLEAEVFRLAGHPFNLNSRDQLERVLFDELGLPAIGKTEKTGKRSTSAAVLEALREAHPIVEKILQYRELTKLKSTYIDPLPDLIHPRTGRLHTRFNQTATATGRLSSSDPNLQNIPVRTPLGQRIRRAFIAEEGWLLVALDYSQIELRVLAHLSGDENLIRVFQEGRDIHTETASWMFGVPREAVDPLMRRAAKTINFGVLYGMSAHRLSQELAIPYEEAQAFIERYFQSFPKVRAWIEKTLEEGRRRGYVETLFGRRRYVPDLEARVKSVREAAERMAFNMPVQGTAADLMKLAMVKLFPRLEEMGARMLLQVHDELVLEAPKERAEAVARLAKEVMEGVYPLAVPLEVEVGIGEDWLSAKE
Protocol: (§2) Gamma-^32P-labeled primer SEQ ID 1 (2.5 pmol), cold primer SEQ ID 1 (22.5 pmol) and template SEQ ID 2 (30 pmol) were annealed by incubation at 95° C. for […] in NEB ThermoPol Reaction Buffer (20 mM Tris-HCl, 10 mM KCl, 10 mM (NH4)2SO4, 2 mM MgSO4, 0.1% TritonX-100) and slowly cooled to room temperature, followed by the addition of Taq cell-free extract (4 μL, the sole source of polymerase). Then, the mixture (final volume 10 μL) was pre-heated to 72° C. (30 sec), and the extension was initiated by adding either reversibly terminated or irreversibly terminated nucleoside triphosphates (final concentration of 100 μM) or both. After 2 mM, the reaction was quenched by 10 mM EDTA in formamide loading buffer (20 μL) and was resolved on a 14% PAGE (FIGS. 8 and 9).
(§3) 93 Taq polymerase variants from PD library (Table 1) were tested for their ability to incorporate TTP-ONH2. Co-Taq polymerase and the Taq polymerase from New England Biolabs were also tested in parallel as controls. […] Of these variants, eight extended the primer by more than 50% to N+1, performing better than Co-Taq.

[3] = tested on: 93 Taq polymerase variants from PD library; assay: Standing start primer-extension assay, PD library screen; type: biochemical; settings: 100 μM triphosphate, 72° C., 2 min
Protocol: as §2, §3
To explore the potential of these variant polymerases to incorporate the corresponding 2′-, 3′-dideoxynucleotide, they were challenged with ddTTP (FIG. 9). A total of 27 variant polymerases were able to incorporate ddTTP to a detectable extent, while three of these variants converted more than 50% of the primer to n+1 product.

[4] = molecular target: T2, PD-42 (Taq A597T, L616A, F667Y, E745H) (Thermus aquaticus, UniProt P19821, A597T/E745H/F667Y/L616A); assay: Primer extension / fidelity test with PD-42; type: biochemical; settings: 100 μM, 72° C.
T2 construct: made in house; pASK-IBA43plus vector
T2 sequence (P19821 whole entry A597T/L616A/F667Y/E745H): as the sequence (P19821 whole entry) above, with A597T, L616A, F667Y, E745H counted along it
Protocol: as §2
In a 10 μL reaction volume, γ^32P-labeled primer SEQ ID 1([…]), cold primer SEQ ID 1 ([…]) and four kinds of 36 nt long template ([…]) (see above) were annealed respectively by incubation at 95° C. for 5 min and slow cooled to room temperature. 1 (0.25 μg/μL) of PD-42 and 58 (polymerases were purified by Qiagen Ni-NTA Spin Kit) were then added to reactions and incubated at 72° C. for 2 min. Reactions were initiated by the addition of dNTP-ONH2 or ddNTP (Final concentration of 100 μM) (refer to FIG. 13 for specifics) and were resolved on a 14% PAGE.
Two of the 93 variants that performed well with both dTTP-3′-ONH2 and ddTTP were further examined: PD-42 (A597T, L616A, F667Y, E745H) and PD-58 (E520G, K540I, L616A).

[5] = molecular target: T3, PD-58 (E520G, K540I, L616A) (Thermus aquaticus, UniProt P19821, E520G/K540I/L616A); assay: Primer extension / fidelity test with PD-58; type: biochemical; settings: 100 μM, 72° C.
T3 construct: made in house; pASK-IBA43plus vector
T3 sequence (P19821 whole entry E520G/K540I/L616A): as the sequence (P19821 whole entry) above, with E520G, K540I, L616A counted along it
Protocol: To determine whether HONO could cleave the 3′-terminal ONH2 group from a template-bound oligonucleotide and permit subsequent primer extension in a cycle of the type needed for sequencing using cyclic reversible termination, a 5′-biotinylated template that called for incorporation of two consecutive T's opposite the two consecutive template A′ s was used. Streptavidin on magnetic beads was used to recover products. In the first cycle, beads were incubated (72° C., 2 min) with PD-58 polymerase in the presence of T-ONH2 triphosphate (100 μM). Then, the products were treated with buffered sodium nitrite/HONO to cleave the —ONH2 group, generating a free 3′-OH group. […] This was indicated by a slower moving band arising from the reversibly terminated N+1 product.
as §2, with “After 2 mM, the reaction was quenched by 10 mM EDTA in formamide loading buffer (20 μL) and was resolved on a 14% PAGE (FIGS. 8 and 9).” left out

[6] = Treatment of natural nucleosides with aqueous nitrous acid (control, decomposition by HPLC); type: physicochemical; settings: 700 mM NaNO2, 1 M NaOAc, pH 5.5, room temperature; for oxidation 2 min (extrapolated): extrapolated to 2 min
Protocol: as §1

[7] = molecular target: Terminal Transferase (TdT) (Bos taurus, UniProt P06526); assay: Tailing of reversible terminators using terminal transferase; type: biochemical; settings: 5 μM to 250 μM terminator, 37° C., 1 hour, 8% PAGE
Terminal Transferase (TdT), sequence (P06526 whole entry): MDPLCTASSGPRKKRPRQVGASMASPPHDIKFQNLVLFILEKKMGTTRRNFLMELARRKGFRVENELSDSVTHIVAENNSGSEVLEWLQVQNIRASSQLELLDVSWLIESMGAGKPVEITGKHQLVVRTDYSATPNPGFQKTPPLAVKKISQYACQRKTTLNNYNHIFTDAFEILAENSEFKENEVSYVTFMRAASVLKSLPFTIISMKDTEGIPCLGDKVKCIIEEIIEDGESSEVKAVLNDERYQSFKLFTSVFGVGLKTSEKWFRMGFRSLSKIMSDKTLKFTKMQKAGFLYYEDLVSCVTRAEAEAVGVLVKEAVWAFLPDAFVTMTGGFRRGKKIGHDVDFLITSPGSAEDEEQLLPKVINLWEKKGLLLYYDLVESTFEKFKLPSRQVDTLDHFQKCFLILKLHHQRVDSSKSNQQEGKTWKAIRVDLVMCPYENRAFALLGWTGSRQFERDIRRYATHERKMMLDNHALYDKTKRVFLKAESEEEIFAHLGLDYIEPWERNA
Protocol: The oligonucleotide SEQ ID 1 was ^32P-5′ labeled using OptiKinase (USB Corporation). Pyrimidine tailing buffer reactions (20 μL) contained 100 mM cacodylate buffer (pH 7.1), 2 mM CoCl2, 0.1 mM DTT, […] of radiolabeled template (0.5 μM), 10 units of Terminal Transferase (TdT), and varying amounts of reversible terminator from 5 μM to 250 μM. Samples were incubated at 37° C. for 1 hour and were terminated by heating at 70° C. for 10 min. Samples were resolved on 8% PAGE. […] If treated with TdT and a composition of the instant invention, the ssDNA would be derivatized with a 3′-ONH2 group. This could then be captured by an aldehyde affixed to a solid support.

[8] = [HONO] 700 mM, pH 5.50, room temperature

- cleavage 2 min ([1]; [HONO] 350 mM, pH 5.50, room temperature): 90%
- cleavage 1 min [1, 8]: 98%
- cleavage 2 min [1, 8]: >99%
- cleavage 2 min ([1]; [HONO] 700 mM, pH 5.65, room temperature): 96%
Structure (SMILES): Cc1cn([C@H]2C[C@H](ON)[C@@H](CO)O2)c(=O)[nH]c1=O [1b, 3′-O-aminothymidine]

Structure (SMILES): Cc1cn([C@H]2C[C@H](ON)[C@@H](COP(=O)(O)OP(=O)(O)OP(=O)(O)O)O2)c(=O)[nH]c1=O [TTP-ONH2, 3′-O-Amino-thymidine-5′-triphosphate]
- N+1 product on incorporation [2]: at most a trace of N+1 product
- number of variant polymerases able to incorporate better than NEB Taq [3]: 30
- number of variants that extended more than 50% of the primer to N+1 [3]: eight
- share of the PD library mutants able to incorporate better than NEB Taq [3]: 32.3%
- incorporation by PD-42 ([4]; PD library screen): best incorporation
- incorporation by PD-58 ([5]; PD library screen): best incorporation
- primer extension and termination by PD-58 ([5]; template on streptavidin magnetic beads, 2 min): clean N+1 products

- oxidation 72 h [6]: 13%
- oxidation 2 min (extrapolated) [6]: <1/10000
Structure (SMILES): Nc1ncnc2c1ncn2[C@H]1C[C@H](O)[C@@H](CO)O1 [dA, 2′-deoxyadenosine]

Structure (SMILES): NO[C@H]1C[C@H](n2cnc3c(N)ncnc32)O[C@@H]1COP(=O)(O)OP(=O)(O)OP(=O)(O)O [dATP-ONH2, 3′-O-Amino-2′-deoxyadenosine-5′-triphosphate]
- misincorporation product opposite template A (SEQ ID 3) by PD-42 ([4]; PAGE): trace amounts of products

- oxidation 72 h [6]: 15%
- oxidation 2 min (extrapolated) [6]: <1/10000
Structure (SMILES): Nc1ccn([C@H]2C[C@H](O)[C@@H](CO)O2)c(=O)n1 [dC, 2′-deoxycytidine]

Structure (SMILES): NO[C@H]1C[C@H](n2ccc(N)nc2=O)O[C@@H]1COP(=O)(O)OP(=O)(O)OP(=O)(O)O [dCTP-ONH2, 3′-O-Amino-2′-deoxycytidine-5′-triphosphate]
- primer consumption on TdT tailing [7]: almost all of the primer was remaining
- misincorporation product opposite template dC by PD-42 ([4]; PAGE): trace amounts of products

- oxidation 72 h [6]: 20%
- oxidation 2 min (extrapolated) [6]: <1/10000
Structure (SMILES): Nc1nc2c(ncn2[C@H]2C[C@H](O)[C@@H](CO)O2)c(=O)[nH]1 [dG, 2′-deoxyguanosine]

- primer consumption on TdT tailing [7]: Almost all of the primer was exhausted
Structure (SMILES): NO[C@H]1C[C@H](n2cnc3c(=O)[nH]c(N)nc32)O[C@@H]1COP(=O)(O)OP(=O)(O)OP(=O)(O)O [dGTP-ONH2, 3′-O-Amino-2′-deoxyguanosine-5′-triphosphate]

Structure (SMILES): Cc1cn([C@H]2CC[C@@H](COP(=O)(O)OP(=O)(O)OP(=O)(O)O)O2)c(=O)[nH]c1=O [ddTTP, 2′,3′-dideoxythymidine-5′-triphosphate, reference compound]
- number of variant polymerases able to incorporate to a detectable extent [3]: 27
- number of variants that extended more than 50% of the primer to N+1 [3]: three
